pIC50: −log10 of the molar value. Read-outs that look alike come from different tables or passages of the source.
Key:
[1] = biological target: T1, Recombinant Human 5'-Nucleotidase/CD73 (Homo sapiens, UniProt P21589); design: method as in PMID 18302942, PMID 24144488; conditions: reported by others; ref [25], [26]; cited from earlier work
T1 construct: purchased R&D Systems
T1 sequence (P21589 27-574): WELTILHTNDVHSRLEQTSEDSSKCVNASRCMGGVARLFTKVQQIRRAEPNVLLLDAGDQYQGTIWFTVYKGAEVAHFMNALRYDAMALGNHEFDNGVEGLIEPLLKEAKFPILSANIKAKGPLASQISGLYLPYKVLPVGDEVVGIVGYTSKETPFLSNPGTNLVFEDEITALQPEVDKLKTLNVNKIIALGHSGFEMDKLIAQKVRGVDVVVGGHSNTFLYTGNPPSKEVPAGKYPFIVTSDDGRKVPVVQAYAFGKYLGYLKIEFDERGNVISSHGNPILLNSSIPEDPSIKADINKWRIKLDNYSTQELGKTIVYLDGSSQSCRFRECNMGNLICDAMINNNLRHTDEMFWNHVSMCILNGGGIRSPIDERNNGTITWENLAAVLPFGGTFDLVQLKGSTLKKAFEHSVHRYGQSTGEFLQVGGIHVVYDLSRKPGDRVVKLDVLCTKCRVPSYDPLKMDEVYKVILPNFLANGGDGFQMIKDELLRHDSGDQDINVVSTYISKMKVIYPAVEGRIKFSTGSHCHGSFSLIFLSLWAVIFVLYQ

CD39 (His-Tag Human) = biological target: T2, CD39 (His-Tag Human) (Homo sapiens, UniProt P49961); experiment: Enzyme activity of purified CD39 with ATP or ADP as substrate; assay type: biochemical; conditions: for inhibitory effect on purified CD39: 0.1ng CD39, 10 μM ATP or 10 μM ADP, 30min at 37°C
T2 construct: His; purchased R&D Systems
T2 sequence (P49961 1-510): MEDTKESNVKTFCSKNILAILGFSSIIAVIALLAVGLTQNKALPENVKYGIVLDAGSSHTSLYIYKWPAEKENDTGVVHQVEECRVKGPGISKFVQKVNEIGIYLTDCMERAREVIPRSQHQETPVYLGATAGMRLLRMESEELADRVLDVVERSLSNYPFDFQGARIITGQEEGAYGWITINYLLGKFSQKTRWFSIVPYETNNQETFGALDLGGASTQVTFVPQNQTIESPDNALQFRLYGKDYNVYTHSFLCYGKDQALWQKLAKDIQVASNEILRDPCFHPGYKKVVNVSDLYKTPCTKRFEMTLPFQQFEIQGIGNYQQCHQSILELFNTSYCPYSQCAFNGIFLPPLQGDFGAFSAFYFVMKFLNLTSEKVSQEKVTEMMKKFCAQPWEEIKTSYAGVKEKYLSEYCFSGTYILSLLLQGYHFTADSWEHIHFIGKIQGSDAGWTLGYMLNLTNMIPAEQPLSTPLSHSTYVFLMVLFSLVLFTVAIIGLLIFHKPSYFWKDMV
Method: • 2 Determination of enzyme activity of purified cytosolic cN-II. Activity of purified cN-II (Human cytosolic 5'-Nucleotidase) was determined using 25μl reaction buffer (50mM HEPES, pH 7.0, 100mM KCl, 20mM MgCl2, 5mM DTT, 2.5mM dATP, and 0.1mg/ml BSA) containing enzyme and AMP substrate at 10μM (96-well format). Reaction continued at 37°C for 60 minutes or for a certain time period and terminated by the addition of equal volume (25μl) of AMP-Glo™ Reagent I. Reactions were mixed well and incubated for additional 30 min at 23°C. This was followed by the addition of 50 μl of AMP Detection Solution (10μl of AMP-Glo™ Reagent II per ml of Kinase-Glo® One Solution) and incubated for additional 60 min at 23°C before reading luminescence. • 3 Determination of enzyme activity of purified CD39. […] When ATP is used as a substrate, an equal volume of Kinase-Glo® One Solution was added to CD39 reactions and incubated for 15 min before reading luminescence using a luminometer. When ADP is used as a substrate for CD39, after enzyme reaction completion, an equal volume of AMP Detection Solution with a known CD39 known inhibitor, such as POM 1 at 50μM final concentration was added. Reactions were mixed well and incubated for 60min before reading luminescence using luminometer. For enzyme dilution, reaction buffer can be used for dilution of enzymes.

[2] = test system: T3, Src, protein tyrosine Src kinase; experiment: Inhibitor specificity against other enzymes: Src; assay type: biochemical
T3 construct: purchased Promega
Source text: (§1) Enzyme tested are protein serine/threonine/tyrosine, lipid, sugar, and inorganic kinases, and K/Na ATPase. […] PKA, protein kinase A (solid circle), PKCα (solid square), Src, protein tyrosine Src kinase (solid triangle), Acka, acetate kinase from Escherichia coli (solid reverse triangle), HK, hexokinase from Saccharomyces cerevisiae (solid circle), PI3αKinase, p110α/p85α (square), K/K ATPase, Adenosine 5´-Triphosphatase from porcine cerebral cortex (circle), CD39 (ATP substrate, triangle), and CD39 (ADP substrate, reverse triangle); for CD73 (triangle) in panel B. Each point represents average of a typical experiment done in triplicates; results shown are mean ± SD.

PI3αKinase, p110α/p85α = test system: T4, PI3αKinase, p110α/p85α; experiment: Inhibitor specificity against other enzymes: PI3Kα; assay type: biochemical
T4 construct: purchased Promega
Source text: as §1

PKCα = test system: T5, PKCα; experiment: Inhibitor specificity against other enzymes: PKCα; assay type: biochemical
T5 construct: purchased Promega
Source text: as §1

[3] = test system: Adenosine 5'-Triphosphatase from porcine cerebral cortex (Na+/K+-ATPase)
Source text: as §1

PKA, protein kinase A = test system: T6, PKA, protein kinase A; experiment: Inhibitor specificity against other enzymes: PKA; assay type: biochemical
T6 construct: purchased Promega
Source text: as §1

HK, hexokinase = experiment: Inhibitor specificity against other enzymes: hexokinase; assay type: biochemical, Saccharomyces cerevisiae
Source text: as §1

[4] = biological target: T1, Recombinant Human 5'-Nucleotidase/CD73; experiment: Enzyme activity of purified CD73 (AMP-Glo assay); assay type: biochemical; conditions: for pIC50: 0.1 ng CD73, 5min at 23°C
Method: • Determination of enzyme activity of purified CD73. In a 25 μl reaction buffer (10mM HEPES, pH 7.4, 2mM MgCl2, 1mM CaCl2, and 0.1mg/ml BSA) containing enzyme and AMP substrate at 1μM to 10μM (96-well format), enzyme activity was performed at 23°C for specified time period and terminated by the addition of equal volume (25μl) of AMP-Glo™ Reagent I containing 50 μM (final concentration) of known CD73 inhibitor, such as AMPCP. Reactions were mixed well and incubated for additional 30 min at 23°C. This was followed by the addition of 50 μl of AMP Detection Solution (10μl of AMP-Glo™ Reagent II per ml of Kinase-Glo® One Solution) and incubated for additional 60 min at 23°C before reading luminescence.

Acka, acetate kinase = test system: T7, Acka, acetate kinase; experiment: Inhibitor specificity against other enzymes: acetate kinase; assay type: biochemical, Escherichia coli
T7 construct: purchased Millipore Sigma
Source text: as §1

Compound	pIC50 [1]	inhibitory effect on purified CD39 (CD39 (His-Tag Human))	inhibition of Src [2]	inhibition of PI3Kα (PI3αKinase, p110α/p85α)	inhibition of PKCα (PKCα)	inhibition of K+/Na+-ATPase [3]	inhibition of PKA (PKA, protein kinase A)	inhibition of hexokinase (HK, hexokinase)	pIC50 ([4]; 5 μM AMP)	pIC50 ([4]; 10 μM AMP)	inhibition of acetate kinase (Acka, acetate kinase)	pIC50 (CD39 (His-Tag Human); 10 μM ADP as substrate, 0.1 ng enzyme)	effect on CD73 enzyme activity ([4]; purified CD73, 0.1ng, 1μM AMP, 5 min at 23°C (Fig 6))
Nc1ncnc2c1ncn2[C@@H]1O[C@H](COP(=O)(O)CP(=O)(O)O)[C@@H](O)[C@H]1O [AMP-CP, Adenosine 5'-(α, β-methylene) diphosphate]	6.63	no inhibitory effect	no inhibition	no inhibition	no inhibition	no inhibition	minimal inhibition	no inhibition	6.80	6.52	no inhibition	–	–
[Na+].[Na+].[Na+].[Na+].[Na+].[Na+].[O]=[W](=[O])([O-])[O-].[O]=[W](=[O])([O-])[O-].[O]=[W](=[O])([O-])[O-].[O]=[W](=[O])=[O].[O]=[W](=[O])=[O].[O]=[W](=[O])=[O].[O]=[W](=[O])=[O].[O]=[W](=[O])=[O].[O]=[W](=[O])=[O].[O]=[W](=[O])=[O].[O]=[W](=[O])=[O].[O]=[W](=[O])=[O] [POM1, Sodium metatungstate]	–	inhibited	inhibited	inhibited	inhibited	inhibited	inhibited	inhibited	–	–	inhibited	5.43	no effect
